Article PMC12628652, “A Validated UPLC‐MS/MS Method for Monitoring Temozolomide and Perillyl Alcohol Metabolites in Biological Matrices: Insights From a Preclinical Pharmacokinetic Study” (Biomedical Chromatography, 2025)
Entries after “also recorded” stand apart in the source; their conditions may differ.

Key:
[1] = Pharmacokinetic study in rats after single oral administration of POH and TMZ (plasma, UPLC-MS/MS); format: in vivo, Male Wistar rats; details: rat plasma; for Cmax / Tmax / half-life / k el / AUC(0-t): male, Wistar; for AUC(0-t): read-out: AUC0–24h
Protocol: Approximately 200 μL of whole blood was collected from the tail vein of each rat. Samples were centrifuged at 3500 rpm for 10 min at 20°C to separate the plasma. Plasma samples were then subjected to liquid–liquid extraction with ACN. The mixture was centrifuged again at 3500 rpm for 10 min at 4°C. The resulting supernatant was filtered through hydrophobic 0.22 μm membranes and transferred to autosampler vials. A 2 μL aliquot of each sample was injected into the UPLC‐MS/MS system for analysis.
Thawed plasma samples (50 μL) were also prepared by protein precipitation. Each sample was mixed with 50 μL of IS solution and 900 μL of ACN, followed by centrifugation at 3500 rpm for 10 min at 20°C. The supernatants were filtered and analyzed as described. All dilutions were performed based on analyte concentration to ensure compliance with the method's validated dynamic range.
(§1) The pharmacokinetic and biodistribution study was conducted in accordance with ethical guidelines and approved by the Animal Ethics Committee of the Universidade Estadual do Centro‐Oeste, Brazil (Protocol No. 026/2023). Male Wistar rats (n = 6 for pharmacokinetics; n = 4 for biodistribution), weighing approximately 200 g, were housed under controlled environmental conditions (12 h light/dark cycle, 35% relative humidity, and temperature of 23°C ± 2°C). Animals had free access to food and water, which were withheld 10 h prior to drug administration and resumed 2 h afterward.
(§2) Each animal received a single oral dose of POH (47 mg/kg) and TMZ (2 mg/kg). For pharmacokinetic profiling, blood samples were collected via the tail vein into heparinized tubes at predefined time points: 0.5, 1, 2, 4, 8, 12, and 24 h post‐administration. For biodistribution analysis, a separate cohort of rats (n = 4) was sacrificed 4 h after dosing. Organs, including the brain, liver, lungs, kidneys, and spleen, were collected, homogenized, and stored at −20°C for subsequent quantification, as detailed in Section 3.2.
Pharmacokinetic parameters were calculated using non‐compartmental analysis with the PKSolver plugin for Microsoft Excel. The following parameters were determined: area under the plasma concentration–time curve from 0 to 24 h (AUC0–24h), maximum plasma concentration (Cmax), time to reach Cmax (tmax), elimination half‐life (t1/2), volume of distribution (VD), and total clearance (CL).

[2] = Biodistribution study in rats 4 h after single oral administration of POH and TMZ; format: in vivo, Male Wistar rats; details: n = 4; for tissue concentrations (brain, liver, spleen, kidney, lung), in words: rats
Protocol: Following blood collection, animals were anesthetized and euthanized, and their organs (kidneys, liver, spleen, brain, and lungs) were promptly excised and stored at −20°C. Tissue samples were homogenized in PBS (pH 7.4) at a ratio of 1 part tissue to 5 parts buffer (w/v), using a mechanical homogenizer equipped with a 5 mm probe.
For chromatographic analysis, 200 μL of each tissue homogenate was mixed with 50 μL of IS solution (final IS concentration: 100 ng/mL) and 750 μL of ACN to reach a final volume of 1 mL. The mixture was centrifuged at 3500 rpm for 10 min at 20°C. The supernatant was collected, filtered through a 0.22 μm membrane, and transferred to injection vials for UPLC‐MS/MS analysis. When necessary, samples were diluted appropriately to ensure analyte concentrations fell within the validated linear range.
as §1, §2

[3] = single oral dose POH 47 mg/kg and TMZ 2 mg/kg, n = 6
[4] = rat brain, 4 h after single oral dose POH 47 mg/kg and TMZ 2 mg/kg
[5] = 4 h after single oral dose POH 47 mg/kg and TMZ 2 mg/kg

Structure (SMILES)	Cmax [1, 3]	Tmax [1, 3]	half-life [1, 3]	k el [1, 3]	AUC(0-t) [1, 3]	CL [1, 3]	Vd [1, 3]	concentration at 4 h ([2]; male, Wistar, rat brain, 4 h after single oral dose TMZ 2 mg/kg and POH 47 mg/kg)	brain concentration / CNS penetration, in words [2, 4]	tissue concentrations (brain, liver, spleen, kidney, lung), in words [2, 5]	Tmax ([1]; single oral dose POH 47 mg/kg)	hepatic accumulation, in words ([2]; rat liver, 4 h after single oral dose POH 47 mg/kg and TMZ 2 mg/kg)
Cn1nnc2c(C(N)=O)ncn2c1=O [TMZ, Temozolomide]	1450 ng/mL	1 h	18.4 h	1.03e-05 s⁻¹	8170 ng·h/mL	1.5 mL/min/kg	1.75 L/kg	~1000 ng/mL	highest concentration in the brain	highest tissue concentrations in all organs	–	–
C=C(C)[C@@H]1CC=C(C(=O)O)CC1 [PA, perillic acid]	704 ng/mL	0.5 h	19 h	1e-05 s⁻¹	2200 ng·h/mL	3.83 mL/min/kg	6.26 L/kg	–	limited brain penetration; also recorded: lower brain concentrations	mainly distributed to liver and kidneys	≤ 0.5 h	marked hepatic accumulation
NC(=O)c1[nH]cnc1N [AIC, 5‐aminoimidazole‐4‐carboxamide]	–	1 h	18.5 h	1.03e-05 s⁻¹	2190 ng·h/mL	3.83 mL/min/kg	6.09 L/kg	–	lower brain concentrations	lowest tissue concentrations	–	–
